This note sets out measurements from patent US20250162973A1, “METHODS OF SYNTHESIS AND USES OF AGRIMOL COMPOUNDS” (Versitech Limited, priority 2022, published 2025).

Where two headings read alike, the source gives them in different places.

The test system of one test is NCI-H460 spheres. The experiment in a line: Sphere formation assay (tumorsphere self-renewal). The test is classed as cell-based. The following applies: Homo sapiens, read-out: tumorsphere forming efficiency, inhibition; for inhibition at 1 µM: 1.0 μM AGB. How it is done: NCI-H460 cells were seeded at 3,000 cells/ml per well in specific sphere formation medium (DMEM/F12 supplemented with 20 ng/ml EGF, 20 ng/ml bFGF and 1×B-27) with or without AGB (DMSO as vehicle, 0.5 and 1.0 μM of AGB for the assay) in a 6-well Ultra Low Cluster Plate (Costar®). The concentration of DMSO was normalized to 0.5% in all wells and was 0.5%. The cells were incubated at 37° C. for five days and the spheres were photographed under an inverted microscope at 40× magnification. Primary tummorsphere were collected and enzymatically dissociated using trypsin to generate the secondary tummorsphere. The dissociated cells were re-plated at a density of 2,000 cells/mL for subsequent passages. The images were captured and four fields were randomly chosen and the relative areas occupied by the spheres were measured using ImageJ (National Institutes of Health, Bethesda, MD). Representative images were obtained from three independent experiments.

For the next test, the system named is NCI-H460 xenograft. Nature of the test: Human tumor xenograft model. Format: in vivo, BALB/c nude mice. The following applies: AGB 3 mg/kg, tail intravenous injection. The procedure:
In vivo anticancer efficacy of AGB was evaluated using the human tumor xenograft model, in which human cancer cells were inoculated into immune-deficiency mice. Briefly, twelve six-week-old (16-18 g) BALB/c nude mice were randomly divided into two groups and both received subcutaneous injection of NCI-H460 cells (2 million cells in 0.1 mL PBS) at its right flank of mice and tumor became palpable after three days of injection. Mice were received intravenous (i.v.) injections of AGB or vehicle control (10% DMSO and 0.05% Tween 80 in normal saline) every two days in two weeks. The length and width of tumor were measured by Vernier caliper and the body weight was monitored every two or three days. At the end of experiment, mice were sacrificed and decapitated. The liver, kidney, and tumor were collected and fixed in 4% formaldehyde for further haematoxylin and eosin (H&E) staining. All animal experiments in this project received human care and study protocols complied with the guidelines of the Laboratory Animal Services Centre of the University of Hong Kong. Tumor sizes and body weight were recorded before the drug injection every time and tumor volume (V) was calculated by the formula V=LW^2/2, where L is tumor length and W is tumor width. […]
The in vivo antitumor potential of AGB using the xenograft mouse model was assessed. […]
In general terms: In xenograft studies the graft and the host belong to different species.

The subject of test [1] is cancer stem cells (NCI-H460 tumorspheres). Nature of the test: MTT assay on tumorspheres (cancer stem cells). Format: cell-based. The following applies: Homo sapiens, 72-h treatment. The procedure:
For IC50 determination of sphere, similar procedures were performed as mentioned above. Briefly, cells were plated in 96-well clear flat bottom ultra-low attachment cell culture plates (Corning®) with a density of 5*10^3 cells into each well with specific sphere formation medium (DMEM/F12 medium supplemented with 20 ng/mL EGF, 20 ng/mL bFGF, 2% B27). The cells were then treated with AGB at different concentrations, ranging from 0.3 to 100 μM. After 3 days of treatment, the formed tumorspheres in each well were monitored under microscope. The MTT was then applied to determine the cell viability and the cell viability of AGB-treatment group was calculated via normalization to control groups and the IC50 value was calculated from the plot curve that fitted to a Boltzmann sigmoidal function.
(Tetrazolium dyes change colour on reduction, which living cells bring about.)

The next test deals with HSP60 (Homo sapiens, UniProt P10809). The experiment in a line: CETSA / ITDRFCETSA immunoblot. Format: binding. Further details: dose dependent recovery of soluble HSP60 in cells subjected to heating; endogenous in cells; host or cells: NCI-H460. To be noted: CETSA melt curve, NCI-H460 cells. How it is done: Immunoblot experiments were carried out for validating of the three identified potential targets. […] In the isothermal dose-response fingerprint (ITDRFCETSA) experiment, treatment of cells with increasing concentrations of AGB led to dose dependent recovery of soluble HSP60 in cells subjected to heating at protein denaturation temperature at 60° C.

The test system of test [2] is mitochondria of NCI-H460 cells. The experiment in a line: Mitochondrial morphology and fusion/fission proteins (MitoTracker, Western Blot, immunofluorescence, TEM). Format: cell-based, human. The text has this:
Mitochondria are highly dynamic organelles that frequently fuse and fragment, with the ability to change size, shape, and position. The dynamic nature of mitochondria is important for mitochondrial inheritance and for the maintenance of mitochondrial functions. When the balance between fission and fusion is disrupted, as result of a relative increase or decrease in either process, the overall mitochondrial morphology is changed markedly.
Several proteins that control mitochondrial fusion and fission have been identified, including mitofusins and OPA1 for fusion, and Mff and DRP1 for fission. The effects of AGB on the expression of mitochondrial fusion proteins (Mfn1 and Mfn2) and fission proteins (DRP1 and Mff) were studied. […] DRP1 phosphorylation at residue S637 by protein kinase A inhibits mitochondrial fission whereas dephosphorylation at S637 increases mitochondrial recruitment of DRP1 and promotes mitochondrial fission. The localization of DRP1 was examined by the immunofluorescence staining.
OPA1 is another protein localized at the inner mitochondrial membrane and is involved in different function like regulation of mitochondrial morphology dynamics, maintenance of respiratory chain, and control of ATP synthesis. The decrease of L-OPA1 causes inhibition of mitochondrial fusion, whereas the accumulation of S-OPA1 facilitates mitochondrial fission. […] OPA1 plays a role in maintaining the mitochondrial cristae structure. OPA1 fragmentation leads to a disorganization of the structure of the mitochondrial inner membrane. The ultrastructure of mitochondria was observed under transmission electron microscopy (TEM) with the treatment of AGB or vehicle for 16 h.
In general terms: In western blotting, separated proteins are transferred to a membrane and probed.

HSP60, sequence (P10809 27-573): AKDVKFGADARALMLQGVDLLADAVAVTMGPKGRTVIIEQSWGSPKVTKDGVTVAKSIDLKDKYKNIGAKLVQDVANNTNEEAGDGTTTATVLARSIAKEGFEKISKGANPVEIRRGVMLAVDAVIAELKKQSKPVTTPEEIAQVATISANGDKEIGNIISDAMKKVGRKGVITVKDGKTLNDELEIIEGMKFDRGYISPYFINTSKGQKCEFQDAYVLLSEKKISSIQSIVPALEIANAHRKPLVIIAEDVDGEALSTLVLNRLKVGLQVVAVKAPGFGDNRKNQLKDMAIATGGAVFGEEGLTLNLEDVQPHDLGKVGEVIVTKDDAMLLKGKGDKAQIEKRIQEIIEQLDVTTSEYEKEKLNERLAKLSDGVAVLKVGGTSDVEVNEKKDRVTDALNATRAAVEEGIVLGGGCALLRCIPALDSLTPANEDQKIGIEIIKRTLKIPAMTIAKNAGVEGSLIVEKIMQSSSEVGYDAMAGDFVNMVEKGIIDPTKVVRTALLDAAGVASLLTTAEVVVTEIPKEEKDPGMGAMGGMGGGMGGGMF

Broadly, the inhibition is the change of the read-out against control, counted positive when it falls. Broadly, the IC50 is the midpoint of a concentration-inhibition curve. A low value points to inhibition by little substance. As for `CCCC(=O)c1c(O)c(Cc2c(O)c(Cc3c(O)c(C)c(OC)c(C(=O)CCC)c3O)c(O)c(C(=O)[C@@H](C)CC)c2O)c(O)c(C)c1OC` [AGB, Agrimol B], the inhibition at 1 µM came out at 40.6% with NCI-H460 spheres (NCI-H460, primary tumorspheres) and 69.7% in the test with NCI-H460 spheres (NCI-H460, secondary tumorspheres). In the test on NCI-H460 spheres (NCI-H460, secondary tumorspheres, 0.5 μM AGB), the inhibition at 0.5 µM was 54.7%. Moreover, in the test on NCI-H460 xenograft, the “tumor growth inhibition rate” value came to 57%. This molecule registered an IC50 in test [1] of 4 µM. In addition, the “increase in the protein melting temperature (Tm) vs DMSO control” value on HSP60 is 3.2 °C. The “morphology of mitochondria (MitoTracker Green)” value in test [2] (4 μM AGB, 0-16 h) is on record as “gradually changed into significant punctuated structures”. Moreover, the “ultrastructure of mitochondria (TEM)” value in test [2] (16 h treatment) is recorded as “circular vesicles of reduced diameter predominated”. The “expression of DRP1 and Mff” value in test [2] (Western Blot) was “did not alter”. The “phosphor-DRP1 (Ser637)” value in test [2] (Western Blot) is given as “significant decrease”. The “OPA1 cleavage from L-OPA1 into S-OPA1” value in test [2] (Western Blot, dose and time dependent) is “promoted OPA1 cleavage”. Besides, in test [2] (Western Blot, dose-dependent), the “expression of Mfn1 and Mfn2” value is “slightly decreased”. The “translocation of DRP1 from cytoplasm into mitochondria” value in test [2] (immunostaining, mito-RFP-transfected cells) was “significantly promoted”.
